# Measured values reported in patent publication US12187713B2, “Immunomodulators, compositions and methods thereof” (Betta Pharmaceuticals Co., Ltd, priority 2019, dated 2025).
# Target: PD-1/PD-L1 (Homo sapiens (Human), UniProt Q9NZQ7)
# Assay: PD-1/PD-L1 Binding Assay (Alphascreen)
# Method: PD-1/PD-L1 Binding Assay (Alphascreen)
# The assays were conducted in a standard black 384-well polystyrene plate with a final volume of 20 μL. Inhibitors were first serially diluted in DMSO and then added to the plate wells before the addition of other reaction components. The final concentration of DMSO in the assay was […]. Add 100 nL/well of compound to the 384 reaction plate (6008280, PerkinElmer) with Echo and centrifuge at 1000 rpm for 1 minute. Add 5 μL/well 4×PD-L1 solutions to the 384 reaction plate, centrifuge at 1000 rpm for 1 minute, and add 5 μL/well 4×PD-1 solutions, centrifuge at 1000 rpm for 1 minute, and incubate at 25° C. for 15 minutes. The concentrations of the compounds were 300, 100, 33.33, 11.11, 3.70, 1.23, 0.41, 0.137, 0.046, 0.015, 0 nM, respectively. Add 10 μL/well 2× Anti-6×His AlphaLISA Acceptor beads and Streptavidin Donor beads solution (PerkinElmer-AL356F) to the above 384 reaction plate, centrifuge at 1000 rpm for 1 minute, and incubate at 25° C. in the dark for 120 minutes. Read the AlphaLISA signal value using the Envision Reader. IC50 determination was performed by fitting the curve of percent control activity versus the log of the inhibitor concentration using the GraphPad Prism 8.0 software.
# Chain of PD-1/PD-L1 (Q9NZQ7 19-238): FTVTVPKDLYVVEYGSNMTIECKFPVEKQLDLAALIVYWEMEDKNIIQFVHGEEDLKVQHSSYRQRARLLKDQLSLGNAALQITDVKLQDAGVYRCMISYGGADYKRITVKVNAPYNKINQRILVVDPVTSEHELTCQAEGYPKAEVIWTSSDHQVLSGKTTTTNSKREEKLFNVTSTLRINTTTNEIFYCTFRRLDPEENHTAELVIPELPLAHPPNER
SMILES,IC50 (range symbols) [nM],IC50 (numeric values) [nM]
CC(=O)NCCNCc1cc(Cl)c(OCc2cccc(-c3cccc(-c4nc5cc(CN6CCC[C@H]6C(=O)O)c(OC(F)F)cc5o4)c3C)c2C)cc1OCc1cccc(C#N)c1 [Example 210],0.1 to 5,–
"Cc1c(-c2nc3cc(CN4CCC[C@H]4C(=O)O)c(OC(F)F)cc3o2)cccc1-c1cccc(-c2nc3cc(CN4CC(N5CC(C)(O)C5)C4)cc(C#N)c3o2)c1C [Example 150, ((2-(3′-(7-cyano-5-((3-hydroxy-3-methyl-[1,3′-biazetidin]-1′-yl)methyl)benzo[d]oxazol-2-yl)-2,2′-dimethyl-[1,1′-biphenyl]-3-yl)-6-(difluoromethoxy)benzo[d]oxazol-5-yl)methyl)-L-proline]",0.1 to 5,–
"Cc1c(-c2ccc3c(c2)CN(CC(=O)O)C3)cccc1-c1cccc(-c2nc3cc(CN4CCC[C@H]4C(=O)O)c(OC(F)F)cc3o2)c1C [Example 291, ((2-(3′-(2-(carboxymethyl)isoindolin-5-yl)-2,2′-dimethyl-[1,1′-biphenyl]-3-yl)-6-(difluoromethoxy)benzo[d]oxazol-5-yl)methyl)-L-proline]",0.1 to 5,–
"Cc1c(Nc2nccc3cc(CN4CCC4)cnc23)cccc1-c1cccc(-c2nc3cc(CN4CCC[C@H]4C(=O)O)c(OC(F)F)cc3o2)c1C [Example 177, ((2-(3′-((3-(azetidin-1-ylmethyl)-1,7-naphthyridin-8-yl)amino)-2,2′-dimethyl-[1,1′-biphenyl]-3-yl)-6-(difluoromethoxy)benzo[d]oxazol-5-yl)methyl)proline]",–,0.94
"COc1nc(-c2cccc(-c3cccc(-c4nc5cc(CN6CCC[C@H]6C(=O)O)c(OC(F)F)cc5o4)c3C)c2C)ccc1CN1CCC(C(F)F)C1 (stereo partly drawn) [Example 275, ((6-(difluoromethoxy)-2-(3′-(5-((3-(difluoromethyl)pyrrolidin-1-yl)methyl)-6-methoxypyridin-2-yl)-2,2′-dimethyl-[1,1′-biphenyl]-3-yl)benzo[d]oxazol-5-yl)methyl)-L-proline]",5 to 50,–
"Cc1c(-c2nc3cc(CN4CCC[C@H]4C(=O)O)c(OC(F)F)cc3o2)cccc1-c1cccc(NC(=O)c2ccc(CNCCO)cn2)c1Cl [Example 302, ((2-(2′-chloro-3′-(5-(((2-hydroxyethyl)amino)methyl)picolinamido)-2-methyl-[1,1′-biphenyl]-3-yl)-6-(difluoromethoxy)benzo[d]oxazol-5-yl)methyl)-L-proline]",–,0.29
Cc1c(-c2nc3cc(CN4CCCC4)c(F)c(F)c3[nH]2)cccc1-c1cccc(-c2nc3cc(CN4CCC[C@H]4C(=O)O)c(OC(F)F)cc3o2)c1C [Example 296],–,12
"Cc1c(-c2ccc(CN3CCC(C)C3)c(F)c2)cccc1-c1cccc(-c2nc3cc(CN4CCC[C@H]4C(=O)O)c(OC(F)F)cc3o2)c1C (stereo partly drawn) [Example 238, ((6-(difluoromethoxy)-2-(3″-fluoro-2,2′-dimethyl-4″-((3-methylpyrrolidin-1-yl)methyl)-[1,1′:3′,1″-terphenyl]-3-yl)benzo[d]oxazol-5-yl)methyl)-L-proline]",–,2.3
"Cc1c(-c2cnc(CN3CCCC3)c(F)c2)cccc1-c1cccc(-c2nc3cc(CN4CCC[C@H]4C(=O)O)c(OC(F)F)cc3o2)c1C [Example 265, ((6-(difluoromethoxy)-2-(3′-(5-fluoro-6-(pyrrolidin-1-ylmethyl)pyridin-3-yl)-2,2′-dimethyl-[1,1′-biphenyl]-3-yl)benzo[d]oxazol-5-yl)methyl)-L-proline]",–,0.73
"Cc1c(-c2nc3cc(CN4CCC[C@H]4C(=O)O)c(OC(F)F)cc3o2)cccc1-c1cccc(N2CCC(NCC3(CO)CC3)CC2)c1C [Example 307, ((6-(difluoromethoxy)-2-(3′-(4-(((1-(hydroxymethyl)cyclopropyl)methyl)amino)piperidin-1-yl)-2,2′-dimethyl-[1,1′-biphenyl]-3-yl)benzo[d]oxazol-5-yl)methyl)-L-proline]",0.1 to 5,–

# More lines, now with the values ahead:
IC50 (range symbols) [nM],IC50 (numeric values) [nM],SMILES
0.1 to 5,–,"Cc1c(-c2nc3cc(CN4CCC[C@@H]4C(=O)O)c(OC(F)F)cc3o2)cccc1-c1cccc(-c2nc3cc(CN4CCCC4)cc(C#N)c3o2)c1C [Example 145, ((2-(3′-(7-cyano-5-(pyrrolidin-1-ylmethyl)benzo[d]oxazol-2-yl)-2,2′-dimethyl-[1,1′-biphenyl]-3-yl)-6-(difluoromethoxy)benzo[d]oxazol-5-yl)methyl)-D-proline]"
0.1 to 5,–,"Cc1c(-c2nc3cc(CN[C@@H]4CCC[C@@H]4O)ccc3o2)cccc1-c1cccc(-c2nc3cc(CN4CCC[C@@H]4C(=O)O)c(OC(F)F)cc3o2)c1C [Example 310, ((6-(difluoromethoxy)-2-(3′-(5-((((1R,2S)-2-hydroxycyclopentyl)amino)methyl)benzo[d]oxazol-2-yl)-2,2′-dimethyl-[1,1′-biphenyl]-3-yl)benzo[d]oxazol-5-yl)methyl)-D-proline]"
–,4.7,"Cc1c(-c2ccc(CN(C)CCCN(C)C)cc2)cccc1-c1cccc(-c2nc3cc(CN4CCC[C@H]4C(=O)O)c(OC(F)F)cc3o2)c1C [Example 226, ((6-(difluoromethoxy)-2-(4″-(((3-(dimethylamino)propyl)(methyl)amino)methyl)-2,2′-dimethyl-[1,1′:3′,1″-terphenyl]-3-yl)benzo[d]oxazol-5-yl)methyl)-L-proline]"
0.1 to 5,–,"Cc1c(-c2nc3cc(CN4CCC[C@H]4C(=O)O)c(OC(F)F)cc3o2)cccc1-c1cccc(-c2nc3cc(CNCC(C)(C)O)cc(C#N)c3o2)c1C [Example 138, ((2-(3′-(7-cyano-5-(((2-hydroxy-2-methylpropyl)amino)methyl)benzo[d]oxazol-2-yl)-2,2′-dimethyl-[1,1′-biphenyl]-3-yl)-6-(difluoromethoxy)benzo[d]oxazol-5-yl)methyl)-L-proline]"
–,4.3,"Cc1c(-c2nc3cc(CN4CCC[C@H]4C(=O)O)c(OC(F)F)cc3o2)cccc1-c1cccc(-c2nc3cc(CN4CCCC4)c(OC(F)F)cc3o2)c1F [Example 6, ((6-(difluoromethoxy)-2-(3′-(6-(difluoromethoxy)-5-(pyrrolidin-1-ylmethyl)benzo[d]oxazol-2-yl)-2′-fluoro-2-methyl-[1,1′-biphenyl]-3-yl)benzo[d]oxazol-5-yl)methyl)-L-proline]"
0.1 to 5,–,"Cc1c(-c2nc3cc(CN4CCC[C@H]4C(=O)O)c(OC(F)F)cc3o2)cccc1-c1cccc(-c2nc3cc(CNCC4CCC(=O)N4)cc(C#N)c3o2)c1C (stereo partly drawn) [Example 139, ((2-(3′-(7-cyano-5-((((5-oxopyrrolidin-2-yl)methyl)amino)methyl)benzo[d]oxazol-2-yl)-2,2′-dimethyl-[1,1′-biphenyl]-3-yl)-6-(difluoromethoxy)benzo[d]oxazol-5-yl)methyl)-L-proline]"
0.1 to 5,–,"CNCc1cc2nc(-c3cccc(-c4cccc(-c5nc6cc(CN7CCC[C@H]7C(=O)O)c(OC(F)F)cc6o5)c4C)c3C)oc2cc1OCc1cccc(S(C)(=O)=O)c1 [Example 124, ((6-(difluoromethoxy)-2-(2,2′-dimethyl-3′-(5-((methylamino)methyl)-6-((3-(methylsulfonyl)benzyl)oxy)benzo[d]oxazol-2-yl)-[1,1′-biphenyl]-3-yl)benzo[d]oxazol-5-yl)methyl)-L-proline]"
0.1 to 5,–,"Cc1c(-c2nc3cc(CN4CCC[C@H]4C(=O)O)c(OC(F)F)cc3o2)cccc1-c1cccc(-c2nc3cc(CN4CC(C)(CN(C)C)C4)cc(C#N)c3o2)c1C [Example 159, ((2-(3′-(7-cyano-5-((3-((dimethylamino)methyl)-3-methylazetidin-1-yl)methyl)benzo[d]oxazol-2-yl)-2,2′-dimethyl-[1,1′-biphenyl]-3-yl)-6-(difluoromethoxy)benzo[d]oxazol-5-yl)methyl)-L-proline]"
0.1 to 5,–,"CCN(CCO)Cc1cc(C#N)c2oc(-c3cccc(-c4cccc(-c5nc6cc(CN7CCC[C@H]7C(=O)O)c(OC(F)F)cc6o5)c4C)c3C)nc2c1 [Example 141, ((2-(3′-(7-cyano-5-((ethyl(2-hydroxyethyl)amino)methyl)benzo[d]oxazol-2-yl)-2,2′-dimethyl-[1,1′-biphenyl]-3-yl)-6-(difluoromethoxy)benzo[d]oxazol-5-yl)methyl)-L-proline]"
–,0.6,"CCNCc1cc2nc(-c3cccc(-c4cccc(-c5nc6cc(CN7CCC[C@H]7C(=O)O)c(OC(F)F)cc6o5)c4C)c3C)oc2cc1F [Example 96, ((6-(difluoromethoxy)-2-(3′-(5-((ethylamino)methyl)-6-fluorobenzo[d]oxazol-2-yl)-2,2′-dimethyl-[1,1′-biphenyl]-3-yl)benzo[d]oxazol-5-yl)methyl)-L-proline]"
–,1.2,"Cc1c(-c2nc3cc(CN(C)CCO)c(OC(F)F)cc3o2)cccc1-c1cccc(-c2nc3cc(CN4CCC[C@H]4C(=O)O)c(OC(F)F)cc3o2)c1C [Example 17, ((6-(difluoromethoxy)-2-(3′-(6-(difluoromethoxy)-5-(((2-hydroxyethyl)(methyl)amino)methyl)benzo[d]oxazol-2-yl)-2,2′-dimethyl-[1,1′-biphenyl]-3-yl)benzo[d]oxazol-5-yl)methyl)-L-proline]"
–,26,Cc1c(-c2nc3cc(CN4CCCC4)c(F)cc3[nH]2)cccc1-c1cccc(-c2nc3cc(CN4CCC[C@H]4C(=O)O)c(OC(F)F)cc3o2)c1C [Example 297]
–,1.6,"Cc1c(-c2nc3cc(CN4CC(O)C4)c(OC(F)F)cc3o2)cccc1-c1cccc(-c2nc3cc(CN4CCC[C@H]4C(=O)O)c(OC(F)F)cc3o2)c1C [Example 20, ((6-(difluoromethoxy)-2-(3′-(6-(difluoromethoxy)-5-((3-hydroxyazetidin-1-yl)methyl)benzo [d]oxazol-2-yl)-2,2′-dimethyl-[1,1′-biphenyl]-3-yl)benzo[d]oxazol-5-yl)methyl)-L-proline]"
